According to ChEMBL document CHEMBL5233223, “Dammarane-type leads panaxadiol and protopanaxadiol for drug discovery: Biological activity and structural modification” (Eur J Med Chem, 2020):
pIC50: −log10 of the molar value. ≈ marks a conversion by molar mass, not a printed value.

What was measured:
HepG2 2.2.15 = test: Antiproliferative activity against human HepG2.2.15 cells assessed as cell growth inhibition; type: functional, cell-based
PC-3 = test: Antiproliferative activity against human PC-3 cells assessed as cell growth inhibition; type: functional, cell-based
LNCaP = test: Antiproliferative activity against human LNCAP cells assessed as cell growth inhibition; type: functional, cell-based
HCT-116 [1] = test: Antiproliferative activity against human HCT-116 cells assessed as cell growth inhibition at 20 uM in presence of epicatechin at 200 uM relative to control; type: functional; set-up: scale not given: the % may be the effect or the level left
HCT-116 [2] = test: Induction of apoptosis in human HCT-116 cells at 20 uM in presence of epicatechin at 250 uM relative to control; type: functional
HCT-116 [3] = test: Antiproliferative activity against human HCT-116 cells assessed as cell growth inhibition at 20 uM in presence of epicatechin at 250 uM relative to control; type: functional; set-up: scale not given: the % may be the effect or the level left
HCT-116 [4] = test: Antiproliferative activity against human HCT-116 cells assessed as cell growth inhibition at 20 uM relative to control; type: functional; set-up: scale not given: the % may be the effect or the level left
HCT-116 [5] = test: Antiproliferative activity against human HCT-116 cells assessed as cell growth inhibition at 20 uM in presence of epicatechin at 150 uM relative to control; type: functional; set-up: scale not given: the % may be the effect or the level left
HeLa [6] = test: Antiproliferative activity against human HeLa cells assessed as cell growth inhibition measured after 24 hrs by [3H]thymidine incorporation assay; type: functional, cell-based
HCT-116 [7] = test: Induction of apoptosis in human HCT-116 cells at 20 uM at 20 uM relative to control; type: functional
HCT-116 [8] = test: Induction of apoptosis in human HCT-116 cells at 20 uM in presence of epicatechin at 150 uM relative to control; type: functional
Mus musculus = test: In vivo radioprotective activity in gamma-irradiated ICR mouse assessed as inhibition of radiation-induced apoptosis frequency relative to control; type: functional; set-up: scale not given: the % may be the effect or the level left
SK-HEP1 = test: Antiproliferative activity against human SK-HEP1 cells assessed as cell growth inhibition measured after 24 hrs by [3H]thymidine incorporation assay; type: functional, cell-based
HCT-116 [9] = test: Induction of apoptosis in human HCT-116 cells at 20 uM in presence of epicatechin at 200 uM relative to control; type: functional
HeLa [10] = test: Antiproliferative activity against human HeLa cells assessed as cell growth inhibition; type: functional, cell-based
MCF7 = test: Antiproliferative activity against human MCF7 cells assessed as cell growth inhibition; type: functional, cell-based
HCT-116 [11] = test: Antiproliferative activity against human HCT-116 cells at 30 uM incubated for 48 hrs in presence of PPD by MTS assay relative to control; type: functional
HCT-116 [12] = test: Induction of apoptosis in human HCT-116 cells at 30 uM by annexin V-FITC/propidium iodide staining based flow cytometry analysis relative to control; type: functional
HCT-116 [13] = test: Antiproliferative activity against human HCT-116 cells at 30 uM incubated for 48 hrs by MTS assay relative to control; type: functional
HCT-116 [14] = test: Antiproliferative activity against human HCT-116 cells at 20 uM incubated for 48 hrs in presence of PPD by MTS assay relative to control; type: functional
HCT-116 [15] = test: Induction of apoptosis in human HCT-116 cells at 30 uM in presence of PPD by annexin V-FITC/propidium iodide staining based flow cytometry analysis relative to control; type: functional
HCT-116 [16] = test: Antiproliferative activity against human HCT-116 cells at 20 uM incubated for 48 hrs by MTS assay relative to control; type: functional
HCT-116 [17] = test: Antiproliferative activity against human HCT-116 cells at 10 uM incubated for 48 hrs in presence of PPD by MTS assay relative to control; type: functional
HCT-116 [18] = test: Antiproliferative activity against human HCT-116 cells at 10 uM incubated for 48 hrs by MTS assay relative to control; type: functional
Bacillus subtilis = test: Antimicrobial activity against Bacillus subtilis assessed as bacterial growth inhibition; type: functional
Staphylococcus aureus = test: Antimicrobial activity against Staphylococcus aureus USA300 assessed as bacterial growth inhibition; type: functional
[19] = target: 11-beta-hydroxysteroid dehydrogenase 1 (Homo sapiens, UniProt P28845); test: Inhibition of human 11beta-HSD1
HCT-116 [20] = test: Induction of apoptosis in human HCT-116 cells at 10 uM in presence of EGCG at 10 uM relative to control; type: functional
HCT-116 [21] = test: Antiproliferative activity against human HCT-116 cells assessed as cell growth inhibition; type: functional, cell-based
HCT-116 [22] = test: Antiproliferative activity against human HCT-116 cells assessed as cell growth inhibition in presence of irinotecan; type: functional, cell-based
HCT-116 [23] = test: Induction of apoptosis in human HCT-116 cells at 10 uM in presence of EGCG at 30 uM relative to control; type: functional
SW480 [24] = test: Antiproliferative activity against human SW480 cells assessed as cell growth inhibition in presence of irinotecan; type: functional, cell-based
HCT-116 [25] = test: Induction of apoptosis in human HCT-116 cells at 10 uM relative to control; type: functional
HCT-116 [26] = test: Induction of apoptosis in human HCT-116 cells at 20 uM in presence of EGCG at 20 uM relative to control; type: functional
SW480 [27] = test: Antiproliferative activity against human SW480 cells assessed as cell growth inhibition; type: functional, cell-based
HCT-116 [28] = test: Induction of apoptosis in human HCT-116 cells at 20 uM in presence of EGCG at 10 uM relative to control; type: functional
HCT-116 [29] = test: Induction of apoptosis in human HCT-116 cells at 20 uM relative to control; type: functional
HCT-116 [30] = test: Induction of apoptosis in human HCT-116 cells at 10 uM in presence of EGCG at 20 uM relative to control; type: functional
HCT-116 [31] = test: Induction of apoptosis in human HCT-116 cells at 20 uM in presence of EGCG at 30 uM relative to control; type: functional
HCT-116 [32] = test: Induction of apoptosis in human HCT-116 cells at 250 uM relative to control; type: functional
HCT-116 [33] = test: Antiproliferative activity against human HCT-116 cells assessed as cell growth inhibition at 200 uM relative to control; type: functional; set-up: scale not given: the % may be the effect or the level left
[34] = target: 11-beta-hydroxysteroid dehydrogenase 1 (Mus musculus, UniProt P50172); test: Inhibition of mouse 11beta-HSD1
Chain of 11-beta-hydroxysteroid dehydrogenase 1 (Mus musculus, UniProt P50172) (P50172 whole entry): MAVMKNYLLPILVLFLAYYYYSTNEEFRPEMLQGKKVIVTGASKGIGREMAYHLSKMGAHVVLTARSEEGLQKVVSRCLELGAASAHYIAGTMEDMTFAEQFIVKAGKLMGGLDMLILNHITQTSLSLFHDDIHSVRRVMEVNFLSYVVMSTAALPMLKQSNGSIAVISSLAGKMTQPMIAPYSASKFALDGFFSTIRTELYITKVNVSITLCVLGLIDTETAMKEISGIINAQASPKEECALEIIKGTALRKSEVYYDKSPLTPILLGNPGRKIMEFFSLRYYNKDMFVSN

Chain of 11-beta-hydroxysteroid dehydrogenase 1 (Homo sapiens, UniProt P28845) (P28845 whole entry): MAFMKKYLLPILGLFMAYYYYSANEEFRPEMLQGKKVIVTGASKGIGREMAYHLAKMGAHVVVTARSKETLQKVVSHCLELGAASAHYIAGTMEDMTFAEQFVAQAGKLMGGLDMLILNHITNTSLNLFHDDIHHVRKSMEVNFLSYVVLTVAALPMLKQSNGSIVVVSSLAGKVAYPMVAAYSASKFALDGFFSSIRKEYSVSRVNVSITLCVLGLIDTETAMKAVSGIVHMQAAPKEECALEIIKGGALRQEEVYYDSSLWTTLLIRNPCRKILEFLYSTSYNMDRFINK

## CC1(C)CCC[C@](C)(C2CC[C@]3(C)C2[C@H](O)CC2[C@@]4(C)CC[C@H](OC(=O)c5ccccc5O)C(C)(C)C4CC[C@]23C)O1 (stereo partly specified)
HepG2 2.2.15
  pIC50: 5.14

## CC1(C)CCC[C@](C)(C2CC[C@]3(C)C2[C@H](O)CC2[C@@]4(C)C/C(=C/c5cccs5)C(=O)C(C)(C)C4CC[C@]23C)O1 (stereo partly specified)
PC-3
  pIC50: 4.33
LNCaP
  pIC50: > 4.41

## CC1(C)CCC[C@](C)(C2CC[C@]3(C)C2[C@H](O)CC2[C@@]4(C)CC[C@H](O)C(C)(C)C4CC[C@]23C)O1 (stereo partly specified)
HCT-116 [1]
  Activity: 97.2%
HCT-116 [2]
  Activity: 25.8%
HCT-116 [3]
  Activity: 94.7%
HCT-116 [4]
  Activity: 28.7%
HCT-116 [5]
  Activity: 50.7%
HeLa [6]
  pIC50: 5.92
HCT-116 [7]
  Activity: 7.2%
HCT-116 [8]
  Activity: 11.9%
Mus musculus
  Activity: 29.5%
SK-HEP1
  pIC50: 6.10
HCT-116 [9]
  Activity: 16.6%

## COc1ccc(/C=C2/C[C@@]3(C)C(CC[C@]4(C)C3C[C@@H](O)C3C([C@@]5(C)CCCC(C)(C)O5)CC[C@]34C)C(C)(C)C2=O)cc1 (stereo partly specified)
PC-3
  pIC50: 4.40

## CC1(C)CCC[C@](C)(C2CC[C@]3(C)C2[C@H](O)CC2[C@@]4(C)C/C(=C/c5ccc(C(F)(F)F)cc5)C(=O)C(C)(C)C4CC[C@]23C)O1 (stereo partly specified)
PC-3
  pIC50: 4.45
LNCaP
  pIC50: > 4.41

## CC(C)(O)[C@H]1CC[C@@](C)([C@H]2CC[C@]3(C)C2[C@H](O)CC2[C@@]4(C)CC[C@H](O)C(C)(C)C4CC[C@]23C)O1 (stereo partly specified)
HeLa [10]
  pIC50: 5.34

## CC1(C)CCC[C@](C)(C2CC[C@]3(C)C2[C@H](O)CC2[C@@]4(C)CC[C@H](OC(=O)c5c(Cl)c(Cl)c(Cl)c(Cl)c5C(=O)O)C(C)(C)C4CC[C@]23C)O1 (stereo partly specified)
MCF7
  pIC50: 5.06

## CC1(C)CCC[C@](C)(C2CC[C@]3(C)C2[C@H](O)CC2[C@@]4(C)CC[C@H](OC(=O)CCCC(=O)O)C(C)(C)C4CC[C@]23C)O1 (stereo partly specified)
HepG2 2.2.15
  pIC50: 5.14

## O=c1[nH]cc(F)c(=O)[nH]1 [FLUOROURACIL]
HCT-116 [11]
  Activity: 49.4%
HCT-116 [12]
  Activity: 5%
HCT-116 [13]
  Activity: 30.1%
HCT-116 [14]
  Activity: 27.4%
HCT-116 [15]
  Activity: 28.8%
HCT-116 [16]
  Activity: 20.2%
HCT-116 [17]
  Activity: 13.8%
HCT-116 [18]
  Activity: 5.7%

## CC(C)(O)[C@H]1CC[C@@](C)([C@H]2CC[C@]3(C)C2[C@H](O)CC2[C@@]4(C)CC[C@H](OC(=O)C5CCNCC5)C(C)(C)C4CC[C@]23C)O1 (stereo partly specified)
Bacillus subtilis
  MIC: 2 µg/mL (≈ 3.4 µM)
Staphylococcus aureus
  MIC: 8 µg/mL (≈ 13.6 µM)

## CC(C)(O)[C@@H]1CC[C@@](C)([C@H]2CC[C@]3(C)C2[C@H](O)CC2[C@@]4(C)CC[C@H](O)C(C)(C)C4CC[C@]23C)O1 (stereo partly specified)
HeLa [10]
  pIC50: 4.75

## CC(=O)O[C@@H]1CC2[C@@]3(C)CC[C@H](O)C(C)(C)C3CC[C@@]2(C)[C@]2(C)C(=O)C=CC12 (stereo partly specified)
[19]
  pIC50: 7.47

## CC1(C)CCC[C@@](C)(C2CC[C@]3(C)C2[C@H](O)CC2[C@@]4(C)CC[C@H](O)C(C)(C)C4CC[C@]23C)O1 (stereo partly specified)
HCT-116 [20]
  Activity: 14.1%
HCT-116 [21]
  pIC50: 4.92
HCT-116 [22]
  pIC50: 4.93
HCT-116 [23]
  Activity: 35.2%
SW480 [24]
  pIC50: 5.36
HCT-116 [25]
  Activity: 5.7%
HCT-116 [26]
  Activity: 40.7%
SW480 [27]
  pIC50: 5.30
HCT-116 [28]
  Activity: 27.8%
HCT-116 [29]
  Activity: 19%
HCT-116 [30]
  Activity: 30.2%
HCT-116 [31]
  Activity: 48%

## CC1(C)CCC[C@](C)(C2CC[C@]3(C)C2[C@H](O)CC2[C@@]4(C)C/C(=C/c5ccc(O)cc5)C(=O)C(C)(C)C4CC[C@]23C)O1 (stereo partly specified)
PC-3
  pIC50: 4.93
LNCaP
  pIC50: > 4.41

## CC1(C)CCC[C@](C)(C2CC[C@]3(C)C2[C@H](O)CC2[C@@]4(C)CC[C@H](OC(=O)CCC(=O)O)C(C)(C)C4CC[C@]23C)O1 (stereo partly specified)
HepG2 2.2.15
  pIC50: 5.14

## Oc1cc(O)c2c(c1)O[C@H](c1ccc(O)c(O)c1)[C@H](O)C2 [(-)-EPICATECHIN]
HCT-116 [32]
  Activity: 9.4%
HCT-116 [33]
  Activity: 17%

## CC(=O)O[C@H]1CC[C@@]2(C)C(CC[C@]3(C)C2C[C@@H](O)C2C([C@@](C)(O)CCC=C(C)C)CC[C@]23C)C1(C)C (stereo partly specified)
HCT-116 [21]
  pIC50: 4.36
MCF7
  pIC50: 4.43
SW480 [27]
  pIC50: 4.52

## CO[C@@H]1CC(=O)[C@]2(C)C1[C@H](OC(C)=O)CC1[C@@]3(C)CC[C@H](O)C(C)(C)C3CC[C@]12C (stereo partly specified)
[34]
  pIC50: 5.48
[19]
  pIC50: 7.82

## CC(=O)Oc1ccccc1C(=O)O[C@H]1CC[C@@]2(C)C(CC[C@]3(C)C2C[C@@H](O)C2C([C@@]4(C)CCCC(C)(C)O4)CC[C@]23C)C1(C)C (stereo partly specified)
MCF7
  pIC50: 5.59

## CC(C)(O)[C@@H]1CC[C@@](C)([C@H]2CC[C@]3(C)C2[C@H](O)CC2[C@@]4(C)CC[C@H](OC(=O)C5CCNCC5)C(C)(C)C4CC[C@]23C)O1 (stereo partly specified)
Bacillus subtilis
  MIC: 2 µg/mL (≈ 3.4 µM)
Staphylococcus aureus
  MIC: 168 µg/mL (≈ 286 µM)

## COc1cc(/C=C2/C[C@@]3(C)C(CC[C@]4(C)C3C[C@@H](O)C3C([C@@]5(C)CCCC(C)(C)O5)CC[C@]34C)C(C)(C)C2=O)cc(OC)c1OC (stereo partly specified)
PC-3
  pIC50: 4.34

## CO[C@H]1CC(=O)[C@]2(C)C1[C@H](OC(C)=O)CC1[C@@]3(C)CC[C@H](O)C(C)(C)C3CC[C@]12C (stereo partly specified)
[34]
  pIC50: 6.39
[19]
  pIC50: 7.36

## CC1(C)CCC[C@](C)(C2CC[C@]3(C)C2[C@H](O)CC2[C@@]4(C)CC[C@H](OC(=O)c5cc(O)c(O)c(O)c5)C(C)(C)C4CC[C@]23C)O1 (stereo partly specified)
HepG2 2.2.15
  pIC50: 5.14
